Experimental data as given in PubChem BioAssay (NCI).
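Protocol summary: plate cells (96-well), add compound at 5 concentrations, incubate 48 h, interpolate endpoints linearly. At the GI50, growth is halved. TGI: total growth inhibition.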

Columns and labels:
Assay in all cases: growth of human tumour cells (NCI), 48 h
SNB-75 CNS = tested on: SNB-75 CNS
MDA-MB-231 breast = tested on: MDA-MB-231 breast
SK-MEL-2 melanoma = tested on: SK-MEL-2 melanoma
DU-145 prostate = tested on: DU-145 prostate
KM12 colon = tested on: KM12 colon
MCF7 breast = tested on: MCF7 breast
HCT-15 colon = tested on: HCT-15 colon
NCI-H226 lung = tested on: NCI-H226 lung
IGROV1 ovarian = tested on: IGROV1 ovarian
HS 578T breast = tested on: HS 578T breast

SMILES	GI50 (SNB-75 CNS) [µM]	TGI (SNB-75 CNS) [µM]	GI50 (MDA-MB-231 breast) [µM]	TGI (MDA-MB-231 breast) [µM]	GI50 (SK-MEL-2 melanoma) [µM]	TGI (SK-MEL-2 melanoma) [µM]	GI50 (DU-145 prostate) [µM]	TGI (DU-145 prostate) [µM]	GI50 (KM12 colon) [µM]	TGI (KM12 colon) [µM]	GI50 (MCF7 breast) [µM]	TGI (MCF7 breast) [µM]	GI50 (HCT-15 colon) [µM]	TGI (HCT-15 colon) [µM]	GI50 (NCI-H226 lung) [µM]	TGI (NCI-H226 lung) [µM]	GI50 (IGROV1 ovarian) [µM]	TGI (IGROV1 ovarian) [µM]	GI50 (HS 578T breast) [µM]	TGI (HS 578T breast) [µM]
Cc1cc(C)c2nc(Nc3nc(C)c(C)c(=O)[nH]3)nc(C)c2c1	2.9	13.6	2.99	12.7	2.27	7.09	3.8	24.1	3.02	23.9	2.14	10.7	2.94	14.5	2.93	15.4	2.85	12.8	4.53	34.1
COC(=O)c1ccc2c(c1)[n+](=O)c(C(C)=O)c(C(F)(F)F)n2[O-]	1.4	2.71	1.98	3.88	2.23	4.8	1.83	3.23	1.76	3.19	1.76	3.37	1.83	3.52	1.95	3.65	1.75	3.39	2.37	5.84
COc1cc(C2CC(c3ccc(C)cc3)=NN2C(C)=O)ccc1Oc1ccnc2cc(Cl)ccc12 (centres undefined)	0.482	5.93	11.3	> 100	15.8	43.2	> 100	> 100	> 100	> 100	> 100	> 100	> 100	> 100	5.38	> 100	38.2	> 100	2.6	> 100
CC(=O)c1c[nH]c2ccc(-c3ccnc(Nc4ccc(NC(=O)c5cccc(F)c5)c(CN5CCOCC5)c4)n3)cc12	0.042	0.342	0.177	1.3	0.18	0.549	0.185	> 100	0.0892	1.35	0.149	1.7	0.112	–	0.148	1.76	0.151	1.69	0.124	1.02
O=C(O)CSc1ccn(Cc2ccccc2)c1	–	> 100	–	> 100	–	> 100	–	> 100	–	> 100	–	> 100	–	> 100	–	> 100	–	> 100	–	> 100
COc1cc2c(cc1OC)[C@@H]1[C@H](C2=O)c2ccc([N+](=O)[O-])cc2C(=O)N1CCCBr	0.611	12.5	1.45	6.61	4.62	> 100	0.553	> 20.4	0.406	4.6	< 0.01	0.284	0.369	9.27	0.281	1.24	< 0.01	1.93	5.45	50.6
COc1cccc(-n2cnc3c(N/N=C/c4ccncc4)ncnc32)c1	7.45	> 25	> 20.3	> 25	11.6	> 25	17.3	> 25	7.84	> 25	> 25	> 25	9.83	> 25	> 23.9	> 25	8.65	> 25	7.47	> 25
COc1cc(Oc2cnc3cc(N)cc(N)c3n2)cc(OC)c1OC	19.2	72.4	29.4	95.8	> 100	> 100	62.3	> 100	24.9	> 100	35.4	> 100	50	> 100	45.6	> 100	32.8	> 100	37.9	> 100
O=C(O)/C=C/C(=O)Nc1cccc2c1-c1ccccc1C2=O	–	> 58.4	–	81.3	–	32.9	–	> 81.3	–	> 100	–	> 100	–	> 100	–	> 100	–	> 100	–	47.5
